Format in all cases: functional
One experiment deals with MT4. Put plainly: Ability to inhibit human MT-4 tumor cell proliferation by 50%. The following applies: read-out: ID50 (the source's name).
A further experiment has as its system L1210. Put plainly: Ability to inhibit murine L1210 tumor cell proliferation by 50%. The settings on record: Mus musculus, read-out: ID50 (the source's name).
In the next experiment the test system is Raji. The experiment is described as follows: Ability to inhibit human Raji tumor cell proliferation by 50%. The following applies: read-out: ID50 (the source's name).
A further experiment deals with FM3A. The experiment is described as follows: Ability to inhibit murine FM3A tumor cell proliferation by 50%. The settings on record: Mus musculus, read-out: ID50 (the source's name).
Experiment [1] in a line: Ability to inhibit human Molt/4F tumor cell proliferation by 50%. The following applies: read-out: ID50 (the source's name).
The test system of a further experiment is CCRF-CEM. Put plainly: Ability to inhibit human CEM tumor cell proliferation by 50%. The following applies: read-out: ID50 (the source's name).
In the next experiment the test system is H9. Put plainly: Ability to inhibit human H9 tumor cell proliferation by 50%. The settings on record: read-out: ID50 (the source's name).

The structures appear in SMILES notation. ≈ marks a conversion by molar mass, not a printed value.

In the case of `CCCCCC1=CC(=N)C(C)(C)O1`, the IC50 in the experiment on MT4 was greater than 100 µg/mL; with L1210, 98.3 µg/mL (≈ 542 µM); with Raji it was greater than 100 µg/mL; in the experiment with FM3A, 24.2 µg/mL (≈ 133 µM); in experiment [1] it was greater than 100 µg/mL; in the experiment with CCRF-CEM, greater than 100 µg/mL. Also, the IC50 with H9 was greater than 100 µg/mL.
For `CC1=CC(=N)C(c2ccccc2)(c2ccccc2)O1`, the IC50 with MT4 turned out to be 26.5 µg/mL (≈ 106 µM); with L1210, 24.2 µg/mL (≈ 97.1 µM); in the experiment with Raji it was 24 µg/mL (≈ 96.3 µM); in the experiment with FM3A, 25.4 µg/mL (≈ 102 µM); in experiment [1], 25.3 µg/mL (≈ 101 µM); with CCRF-CEM it was 29.3 µg/mL (≈ 118 µM). The IC50 with H9 was determined as 30 µg/mL (≈ 120 µM).
For `COc1ccccc1C1=CC(=O)C(C)(C)O1`, the IC50 in the experiment with MT4 worked out at 30.4 µg/mL (≈ 139 µM); in the experiment with L1210 it was 40.4 µg/mL (≈ 185 µM); in the experiment with Raji, 89.1 µg/mL (≈ 408 µM); in the experiment with FM3A, 31.7 µg/mL (≈ 145 µM); in experiment [1], 53.3 µg/mL (≈ 244 µM); in the experiment with CCRF-CEM, 66.1 µg/mL (≈ 303 µM). In addition, in the experiment on H9, the IC50 was 63.9 µg/mL (≈ 293 µM).
For the compound `C/C(=C\COc1ccc2ccc(=O)oc2c1)C1=CC(=O)C(C)(C)O1` [GEIPARVARIN], the IC50 in the experiment on MT4 amounted to 0.32 µg/mL (≈ 0.981 µM); in the experiment with L1210, 2.07 µg/mL (≈ 6.34 µM); in the experiment with Raji, 2.19 µg/mL (≈ 6.71 µM); in the experiment with FM3A it was 3.2 µg/mL (≈ 9.81 µM); in experiment [1] it was 2.84 µg/mL (≈ 8.7 µM); in the experiment on CCRF-CEM, 2 µg/mL (≈ 6.13 µM). Moreover, the IC50 in the experiment with H9 stood at 1.97 µg/mL (≈ 6.04 µM).
As for `CC1(C)OC(c2ccccc2)=CC1=N`, the IC50 was 76.2 µg/mL (≈ 407 µM) with MT4; 66.4 µg/mL (≈ 355 µM) in the experiment with L1210; greater than 100 µg/mL in the experiment with Raji; 24.7 µg/mL (≈ 132 µM) with FM3A; greater than 100 µg/mL in experiment [1]; greater than 100 µg/mL in the experiment on CCRF-CEM. Further, the IC50 in the experiment with H9 was greater than 100 µg/mL.
Regarding `CCC1(C)OC(/C(C)=C/COc2ccc3ccc(=O)oc3c2)=CC1=O` (centres undefined), the IC50 with MT4 amounted to 0.53 µg/mL (≈ 1.56 µM); in the experiment with L1210, 2.05 µg/mL (≈ 6.02 µM); in the experiment on Raji, 2.59 µg/mL (≈ 7.61 µM); with FM3A, 2.96 µg/mL (≈ 8.7 µM); in experiment [1], 3.02 µg/mL (≈ 8.87 µM); in the experiment on CCRF-CEM it was 2.49 µg/mL (≈ 7.32 µM). For the same compound, in the experiment on H9, the IC50 amounted to 2.15 µg/mL (≈ 6.32 µM).
Consider `C/C(=C\COc1ccc2ccc(=O)oc2c1)C1=CC(=N)C(C)(C)O1`, for which the IC50 in the experiment with MT4 turned out to be 8.77 µg/mL (≈ 27 µM); with L1210, 18.4 µg/mL (≈ 56.6 µM); with Raji, 26 µg/mL (≈ 79.9 µM); in the experiment with FM3A it was 20.7 µg/mL (≈ 63.6 µM); in experiment [1], 25.8 µg/mL (≈ 79.3 µM); with CCRF-CEM, 18.8 µg/mL (≈ 57.8 µM). Moreover, the IC50 in the experiment on H9 came to 21.7 µg/mL (≈ 66.7 µM).
Regarding `CC(C)CC1=CC(=N)C(C)(C)O1`, the IC50 is greater than 100 µg/mL in the experiment with MT4; greater than 100 µg/mL with L1210; greater than 100 µg/mL in the experiment with Raji; 33 µg/mL (≈ 197 µM) in the experiment with FM3A; greater than 100 µg/mL in experiment [1]; greater than 100 µg/mL in the experiment on CCRF-CEM. For the same compound, the IC50 with H9 was greater than 100 µg/mL.
Consider `COc1ccccc1C1=CC(=O)CO1`, for which the IC50 is 44.4 µg/mL (≈ 233 µM) in the experiment on MT4; greater than 100 µg/mL in the experiment with L1210; greater than 100 µg/mL in the experiment with Raji; greater than 100 µg/mL in the experiment with FM3A; greater than 100 µg/mL in experiment [1]; greater than 100 µg/mL in the experiment with CCRF-CEM. For the same compound, the IC50 with H9 is 66.3 µg/mL (≈ 349 µM).
Take `C/C(=C\COc1ccc2ccc(=O)oc2c1)C1=CC(=O)C(C)O1` (centres undefined): the IC50 is 2.56 µg/mL (≈ 8.2 µM) in the experiment on MT4; 7.05 µg/mL (≈ 22.6 µM) in the experiment on L1210; 10.4 µg/mL (≈ 33.3 µM) with Raji; 15.6 µg/mL (≈ 49.9 µM) in the experiment with FM3A; 3.32 µg/mL (≈ 10.6 µM) in experiment [1]; 3.56 µg/mL (≈ 11.4 µM) in the experiment with CCRF-CEM. Further, in the experiment on H9, the IC50 came out at 2.91 µg/mL (≈ 9.32 µM).
Consider `CC(C)CC1=CC(=N)C(C)(C)O1.O=C(O)C(=O)O`, for which the IC50 in the experiment with MT4 was greater than 100 µg/mL; in the experiment on L1210 it was greater than 100 µg/mL; in the experiment with Raji it was greater than 100 µg/mL; in the experiment on FM3A, 33.2 µg/mL; in experiment [1], greater than 100 µg/mL; with CCRF-CEM, greater than 100 µg/mL. Moreover, in the experiment on H9, the IC50 is greater than 100 µg/mL.
Regarding `C/C(=C\COc1ccc2ccc(=O)oc2c1)C1=CC(=N)C2(CCCCC2)O1`, the IC50 in the experiment on MT4 came to 4.93 µg/mL (≈ 13.5 µM); in the experiment with L1210, 4.05 µg/mL (≈ 11.1 µM); in the experiment on Raji it was 23.5 µg/mL (≈ 64.3 µM); in the experiment with FM3A, 15.8 µg/mL (≈ 43.2 µM); in experiment [1] it was 20.5 µg/mL (≈ 56.1 µM); with CCRF-CEM it was 4.95 µg/mL (≈ 13.5 µM). In addition, the IC50 in the experiment on H9 is 14.2 µg/mL (≈ 38.9 µM).
`CCC1(C)OC(/C(C)=C/COc2ccc3ccc(=O)oc3c2)=CC1=N` (centres undefined): the IC50 amounted to 2.65 µg/mL (≈ 7.81 µM) in the experiment on MT4; 4.71 µg/mL (≈ 13.9 µM) with L1210; 17.9 µg/mL (≈ 52.7 µM) with Raji; 14.1 µg/mL (≈ 41.5 µM) with FM3A; 3.17 µg/mL (≈ 9.34 µM) in experiment [1]; 3.57 µg/mL (≈ 10.5 µM) in the experiment with CCRF-CEM. Further, the IC50 in the experiment with H9 stood at 2.58 µg/mL (≈ 7.6 µM).
For the compound `C/C(=C\COc1ccc2ccc(=O)oc2c1)C1=CC(=O)C2(CCCCC2)O1`, the IC50 in the experiment with MT4 is 2.1 µg/mL (≈ 5.73 µM); in the experiment on L1210 it was 1.82 µg/mL (≈ 4.97 µM); in the experiment with Raji, 5.43 µg/mL (≈ 14.8 µM); in the experiment with FM3A, 6.61 µg/mL (≈ 18 µM); in experiment [1] it was 12.7 µg/mL (≈ 34.7 µM); with CCRF-CEM it was 2.72 µg/mL (≈ 7.42 µM). Also, in the experiment on H9, the IC50 was determined as 2.08 µg/mL (≈ 5.68 µM).
As for `CCC1OC(/C(C)=C/COc2ccc3ccc(=O)oc3c2)=CC1=O` (centres undefined), the IC50 is 1.63 µg/mL (≈ 4.99 µM) with MT4; 9.77 µg/mL (≈ 29.9 µM) with L1210; 2.43 µg/mL (≈ 7.45 µM) with Raji; 17.2 µg/mL (≈ 52.7 µM) in the experiment with FM3A; 2.84 µg/mL (≈ 8.7 µM) in experiment [1]; 3.27 µg/mL (≈ 10 µM) in the experiment with CCRF-CEM. Besides, in the experiment on H9, the IC50 worked out at 4.1 µg/mL (≈ 12.6 µM).
On to `O=C1C=C(c2ccccc2)OC1`, for which the IC50 with MT4 was 31.7 µg/mL (≈ 198 µM); in the experiment with L1210 it was 45.8 µg/mL (≈ 286 µM); in the experiment on Raji, 50.1 µg/mL (≈ 313 µM); in the experiment with FM3A it was 31.4 µg/mL (≈ 196 µM); in experiment [1] it was 31.2 µg/mL (≈ 195 µM); in the experiment with CCRF-CEM, 30.2 µg/mL (≈ 189 µM). For the same compound, the IC50 in the experiment with H9 is 38.6 µg/mL (≈ 241 µM).
With `C/C(=C\CO)CC1=CC(=O)C(C)(C)O1`, the IC50 amounted to 3.05 µg/mL (≈ 15.5 µM) with MT4; 15.8 µg/mL (≈ 80.5 µM) in the experiment on L1210; 16.6 µg/mL (≈ 84.6 µM) in the experiment with Raji; 23.3 µg/mL (≈ 119 µM) in the experiment on FM3A; 15.2 µg/mL (≈ 77.5 µM) in experiment [1]; 10.3 µg/mL (≈ 52.5 µM) in the experiment with CCRF-CEM. The IC50 in the experiment with H9 is 9.13 µg/mL (≈ 46.5 µM).

Values taken from ChEMBL document CHEMBL1124380, “Synthesis and cytostatic activity of geiparvarin analogues” (1989).
